Reference: US6620834B1, “Medicinal compositions for treating colorectal cancer” (Hisamitsu Pharmaceutical Co., Inc., priority 1999, dated 2003)

Tested on: Yoshida's sarcoma
Assay: liver metastasis inhibitory effect in Yoshida's sarcoma rat model bearing a colorectal cancer
Assay type: in vivo
Details: Donryu rats, Yoshida's sarcoma injected to sigmoid subserous; intra-colon administration for 5 days, autopsy day 6; versus control group
Protocol: The solution was prepared in which pravastatin and aspirin were mixed in the mixing ratio below, and the pharmacological evaluation was carried out in the liver metastasis model of rat colorectal cancer.
The liver metastasis inhibitory effect was evaluated in the following procedure by use of the mix solution prepared in the example 1.
Donryu strain rats (8 weeks old) were used. Under a sodium pentobarbital anesthesia a catheter was inserted from the ileocecum into the colon, and the plug was put out from the back part and fixed. At the same time Yoshida's sarcoma (1.5×10^6cells/30 μl/rat) was injected to the sigmoid subserous.
The mix solution prepared in the example 1 was administered intra-colon or orally for 5 days from the next day after the surgery, and at day 6 a pathologic autopsy was made.
When the test on day 6 was finished, rats were killed by bleeding for a pathologic autopsy. The liver was isolated from each individual, fixed by a neutral buffered formalin solution, and a tissue section was then prepared to obtain histopathological findings. The metastasis inhibitory ratio was calculated comparing with the engraftment ratio of the cancer cells in the control group.

CC(=O)Oc1ccccc1C(=O)O [aspirin, Aspirin]
liver metastasis inhibitory effect: hardly observed
